According to paper PMC10321224 (RSC Advances, 2023):

Experiments:
[1] = system: DU-145 (hormone-refractory prostate cancer cells); assay: Resazurin antiproliferative assay, DU-145 cells; type: cell-based, human; details: towards HFF-1 cell lines
[2] = system: MDA-MB-231 (triple-negative breast cancer cells); assay: Resazurin antiproliferative assay, MDA-MB-231 cells; type: cell-based, human; details: towards HFF-1 cell lines

For C[C@@H]1C[C@H](c2ccc(Br)cc2)c2c(cc3ccccn23)C(=O)O1 (racemic) [cis-4d], the “Selectivity index (SI = CC50/IC50) HFF-1/DU-145” value [1] was 0.03 and the “Selectivity index (SI = CC50/IC50) HFF-1/MDA-MB-231” value [2] was 0.06.
With COc1cc(OC)cc([C@H]2C[C@@H](C)OC(=O)c3cc4ccccn4c32)c1 (racemic) [cis-4f] the “Selectivity index (SI = CC50/IC50) HFF-1/DU-145” value [1] was greater than 2 and the “Selectivity index (SI = CC50/IC50) HFF-1/MDA-MB-231” value [2] was greater than 5.
